Experimental findings from US5182289A, “Heterobicyclic compounds having antiinflammatory activity” (Schering Corporation, priority 1990, dated 1993) are described below.

Read-outs that look alike come from different tables or passages of the source.

Holding throughout (assay type): in vivo, male rats
The test system of test [1] is Reversed Passive Arthus Reaction (RPAR) in the pleural cavity. In words: Reversed Passive Arthus Reaction (RPAR) in the pleural cavity: cells and fluid. The conditions noted are these: Rattus norvegicus, 4 h; for inhibition in vivo at 20 mg/kg: dose 20 mpk; for inhibition in vivo at 25 mg/kg: dose 25 mpk; for inhibition in vivo at 40 mg/kg: dose 40 mpk. As to the method:
(§1) Reversed Passive Arthus Reaction (RPAR) Assay
(§2) Groups of 4 male rats were injected in the penile vein with antigen (1 mg BSA in 0.2 mL of saline per rat) and 0.5 hour later injected in the pleural cavity with antibody (1.0 mg antibody protein in the IgG fraction of rabbit anti-BSA in 0.2 mL). […] After 4 hours the animals were killed with CO2, and the pleural cavities were opened and the exudate drained into a graduated conical glass centrifuge tube containing indomethacin (1.8 ug) and nordihydroguaiaretic acid (NDGA) (15 ug) to block ex vivo metabolite synthesis. The volume of the exudate was measured. The cavity was then washed out with saline-EDTA to achieve a final volume of 5.0 mL. The number of cells were determined in a Colulter Counter. The cells were spun-down (1000×g) and the exudate supernatant was added to 4 volumes of 95% ethanol and samples were kept on ice for 30 minutes. After removal of the protein precipitate (2,500×g) the ethanol extract of the exudate was dried under N2 and then stored at -20° C. For radioimmunoassay (RIA) analysis the samples were redissolved in water to a volume of 1 mL per rat. Utilizing internally spiked samples, recovery of TXB2 (tritiated thromboxane B2) and LTE4 (tritiated leukotriene-E4) from exudates was determined to be 84±2% (SEM) and 89±2% (N=4), respectively. Exudate samples were directly assayed in duplicate with the commercial ^3 H-TXB2 RIA kit from New England Nuclear and the ^3 H-LTC4 /D4 /E4 kit from Amersham. The assay was validated using reversed-phase HPLC analysis of LTs in the standard procedure described by M. W. Musch, R. W. Bryant, C. Coscollaela, R. F. Myers and M. I. Siegel, Prostaglandins, Vol. 29, pp 405-430 (1985). Samples of ethanol exudate extract were "spiked" with ^3 H-LTs to follow HPLC purification and recovery.

The test system of the next test is CO (cyclooxygenase). Kind of test: Reversed Passive Arthus Reaction (RPAR) in the pleural cavity: TXB-2 in exudate. The procedure:
as §1, §2

Another test relates to 5-LO. Kind of test: Reversed Passive Arthus Reaction (RPAR) in the pleural cavity: LTE-4 in exudate. The procedure: as §1, §2
[2] abbreviates: read-out: RPAR-Pleural Cavity % Inhibition cells.
Setting [3] is: read-out: RPAR-Pleural Cavity % Inhibition fluid.

Consider `CC1(C)C(=O)N(c2ccc(F)cc2)c2ncccc21` [Compound 9, 1,3-dihydro-3,3-dimethyl-1-(4-fluorophenyl)-2H-pyrrolo[2,3-b]pyridin-2-one], for which the inhibition in vivo at 20 mg/kg was found to be 70% in test [1] (setting [2]) and 43% in test [1] (setting [3]). Also, the “RPAR-Pleural Cavity % Inhibition TXB-2” value in the test with CO (cyclooxygenase) (dose 20 mpk) came out at 53%. In addition, the “RPAR-Pleural Cavity % Inhibition LTE-4” value in the test with 5-LO (dose 20 mpk) is on record as 36%.
As to `CC1(C)C(=O)N(c2cccc(Cl)c2)c2ncccc21` [Compound 5, 1-(3-chlorophenyl)-1,3-dihydro-3,3-dimethyl-2H-pyrrolo[2,3-b]pyridin-2-one], the figures for the inhibition in vivo at 25 mg/kg in test [1] (setting [2]) and in test [1] (setting [3]) were 51% and 49%, respectively. Further, the “RPAR-Pleural Cavity % Inhibition TXB-2” value with CO (cyclooxygenase) (dose 25 mpk) is 62%. The “RPAR-Pleural Cavity % Inhibition LTE-4” value with 5-LO (dose 25 mpk) was 59%.
In the same order, the values of `CC1(C)C(=O)N(c2ccc(Cl)cc2)c2ncccc21` [Compound 2, 1-(4-chlorophenyl)-1,3-dihydro-3,3-dimethyl-2H-pyrrolo[2,3-b]pyridin-2-one] are 73%, 83%, 78% and 87%.
`CC1(C)C(=O)N(c2ccccc2)c2ncccc21` [Compound 1, 1,3-dihydro-3,3-dimethyl-1-phenyl-2H-pyrrolo[2,3-b]pyridin-2-one]: the inhibition in vivo at 40 mg/kg in test [1] (setting [2]) came to 70%; in test [1] (setting [3]) it was 60%. Further, in the test with CO (cyclooxygenase) (dose 40 mpk), the “RPAR-Pleural Cavity % Inhibition TXB-2” value is reported as 54%. Also, the “RPAR-Pleural Cavity % Inhibition LTE-4” value in the test with 5-LO (dose 40 mpk) was 54%.
Regarding `COc1ccc(N2C(=O)C(C)(C)c3cccnc32)cc1` [Compound 8, 1,3-dihydro-3,3-dimethyl-1-(4-methoxyphenyl)-2H-pyrrolo[2,3-b]pyridin-2-one], the values for the inhibition in vivo at 25 mg/kg in test [1] (setting [2]) and in test [1] (setting [3]) were 63% and 42%, respectively. Moreover, the “RPAR-Pleural Cavity % Inhibition TXB-2” value with CO (cyclooxygenase) (dose 25 mpk) came to 34%. For the same compound, the “RPAR-Pleural Cavity % Inhibition LTE-4” value in the test on 5-LO (dose 25 mpk) worked out at 0%.
Take `CC1(C)C(=O)N(c2ccc(Cl)c(Cl)c2)c2ncccc21` [Compound 6, 1-(3,4-dichlorophenyl)-1,3-dihydro-3,3-dimethyl-2H-pyrrolo[2,3-b]pyridin-2-one]: the values for the inhibition in vivo at 25 mg/kg in test [1] (setting [2]) and in test [1] (setting [3]) were 26% and 25%, respectively. Also, the “RPAR-Pleural Cavity % Inhibition TXB-2” value with CO (cyclooxygenase) (dose 25 mpk) is 44%. For the same compound, the “RPAR-Pleural Cavity % Inhibition LTE-4” value in the test on 5-LO (dose 25 mpk) is on record as 46%.
On the same counts, the results for `CN1C(=O)C(C)(C)c2cccnc21` [Compound 3, 1,3-dihydro-1,3,3-trimethyl-2H-pyrrolo[2,3-b]pyridin-2-one] are 69%, 53%, 17% and 62%.
